The values below come from US20070232577A1, “Synthetic pentacyclic triterpenoids and derivatives of betulinic acid and betulin” (Advanced Life Sciences, Inc., priority 2006, published 2007).

Series [1] deals with A-375 (melanoma). Briefly: MTS cell viability assay, A-375. The settings on record: Homo sapiens, 72 h. Type of series: cell-based. The protocol:
(§1) All treatments were performed in triplicate. […] Cells were incubated at 37° C. for 72 h.

In series [2] the test system is LN-229 (glioblastoma). The experiment in a line: MTS cell viability assay, LN-229. Type of series: cell-based. The settings on record: Homo sapiens, 72 h. How it is done: as §1
(Formazan colour is commonly taken as a measure of viable cells.)

Series [3] deals with OVCAR-3 (ovarian carcinoma). The experiment in a line: MTS cell viability assay, OVCAR-3. Type of series: cell-based. The following applies: Homo sapiens, 72 h. How it is done: as §1
For series [4], the system named is HT-29 (colon carcinoma). Briefly: MTS cell viability assay, HT-29. Type of series: cell-based. The following applies: Homo sapiens, 72 h. How it is done:
as §1

Series [5] has as its system MCF-7 (breast carcinoma). Briefly: MTS cell viability assay, MCF-7. Type of series: cell-based. The following applies: Homo sapiens, MCF7, 72 h. The protocol: as §1
In series [6] the test system is Daoy (glioblastoma). Briefly: MTS cell viability assay, Daoy. The following applies: for IC50: Homo sapiens, Daoy, 72 h, read-out: IC50 Daoy.
Protocol: (§2) Cells were plated, the evening before treatment, for each treatment on 96-well plates (1×10^4 cells/well) in 100 μL volume per well. Drug solutions were prepared by diluting each test compound in DSMO (10 mM) with the appropriate cell growth media for each individual cell line, or in “Universal Media” if several cell lines were to be assayed in parallel, immediately prior to cell treatment. Universal Media consisted of 5 mL sodium pyruvate (100×liquid stock, CellGro), 5 mL glucose (100×, 45% liquid stock, CellGro), 5 mL Penicillin/Streptomycin (100×liquid stock, CellGro), 10 mL sodium bicarbonate (50×liquid stock, CellGro), 25 mL Fetal Calf Serum, 1.25 mL insulin (4 mg/mL, Gibco) and 449 mL RPMI media with 2 mM glutamine for a total volume of 500 mL. Cells were treated by aspirating media from each well and adding 80 μL of each drug solution to the attached cells. All treatments were performed in triplicate. Growth media (80 μL) were added to 3 blank wells (no cells) to measure background from the growth media Growth media alone (no DMSO or test compond) was added to 2 wells containing cells to measure the baseline MTS activity and vehicle (DMSO) control solutions were also included to monitor basal toxicity from DMSO. Cells were incubated at 37° C. for 72 h. MTS reagent (per 96-well plate) were prepared by combining 2 mL of MTS working solution (Cell Titer AQueous Non-Radioactive Cell Proliferation Assay, Promega, cat#G1112), 100 μL of 0.92 mg/mL phenazine methosulfate/Dulbecco's PBS and 2.1 mL growth media. MTS reagent (40 μL) were added to each well and incubated at 37° C. for 1.5 to 4 h. Plates were gently shaken by hand until solution in each well appeared homogenous. Absorbances at 490 nm were measured on a plate reader at multiple time points following the addition of MTS reagent for each plate. Triplicate absorbance (490 nm) measurements were averaged following background (no cell) subtraction for each drug concentration. Percent Cell Viability was calculated for each drug concentration using the following equation: {[Absorbances(drug treated)]/[Absorbances(DMSO treated)]}×100%
(§3) Percent viability (y-axis) was plotted against drug concentration (x-axis) and the resulting graph was used to determine the 50% inhibitory concentration (IC50) for each drug.
Series [7] deals with SK-MEL-2 (melanoma). Briefly: MTS cell viability assay, SK-MEL-2. The settings on record: Homo sapiens, SK-MEL-2, 72 h, read-out: IC50 SK-MEL-2.
Protocol: as §2, §3
Series [8] deals with SK-MEL-2 cells. Briefly: Caspase activation assay, SK-MEL-2. Type of series: cell-based. The settings on record: SK-MEL-2. How it is done:
All treatments were performed in duplicate. […] Cells were incubated at 37° C. for 8 h. Caspase assay reagent (per 96-well plate) was prepared according to manufacturer's instructions (Homogeneous Caspases Assay, fluorometric, Roche) by combining 6.3 mL Incubation Buffer with 0.7 mL of Substrate Stock Solution. Caspase assay reagent (70 μL) was added to each well; the plate was gently shaken by hand for 15-20 seconds and incubated at 37° C. for 4 h.
Fluorescent emission was measured at 535 nm on a plate reader using the “homogeneous caspase” program (excitation Wavelength=490 nm, emission wavelength=535 nm). Duplicate wells for each treatment were averaged following background (no cells) subtraction (emission 535 nm value from all experimental emission 535 nm values) for each drug concentration.
DMSO treatment represented baseline caspase activation in the absence of drug. The percent changes in caspase activity were plotted on the y-axis for each drug treatment.
Caspase activation assays were conducted to further characterize the mode of cell death. A treatment time and dose at which maximum caspase activation was observed prior to massive cell destruction would be indicative of apoptosis induction. SK-MEL-2 cells were treated with 5, 15, and 50 μM of the compound for 2, 4, 6, 8, 16, and 24 h in the absence of FBS (Fetal Bovine Serum).

Values after ≈ are worked out from the molar mass of the structure shown. Some results are limits rather than exact numbers.

In general, IC50 refers to the concentration needed to halve the response being measured. `C=C(C)[C@@H]1CC[C@]2(C(=O)O)CC[C@]3(C)[C@H](CC[C@@H]4[C@@]5(C)CC[C@H](O)C(C)(C)[C@@H]5CC[C@]43C)[C@@H]12` [Compound 1, (1R,3aS,5aR,5bR,7aR,9S,11aR, 11bR,13aR,13bR)-9-hydroxy-5a,5b,8,8,11a-pentamethyl-1-(prop-1-en-2-yl)icosahydro-1H-cyclopenta[a]chrysene-3a-carboxylic acid, reference compound]: the IC50 in series [1] was found to be 51 µg/mL (≈ 112 µM); in series [2], 61 µg/mL (≈ 134 µM); in series [3] it was 59 ± 4.58 µg/mL (≈ 129 µM); in series [4], 37 µg/mL (≈ 81 µM); in series [5] it was 50 µg/mL (≈ 109 µM); in series [6], 31.3 ± 2.28 µg/mL (≈ 68.5 µM). The IC50 in series [7] was found to be 33.2 ± 3.77 µg/mL (≈ 72.7 µM).
As for `C=C(C)[C@@H]1CC[C@]2(COC(=O)CBr)CC[C@]3(C)[C@H](CC[C@@H]4[C@@]5(C)CCC(=O)C(C)(C)[C@@H]5CC[C@]43C)[C@@H]12` [Compound 18, ((1R,3aS,5aR,5bR,7aR,11aR,11bR,13aR,13bR)-5a,5b,8,8,11a-pentamethyl-9-oxo-1-(prop-1-en-2-yl)icosahydro-1H-cyclopenta[a]chrysen-3a-yl)methyl 2-bromoacetate], the IC50 was 14 µg/mL (≈ 24.9 µM) in series [1]; 8 µg/mL (≈ 14.2 µM) in series [3]; 36 µg/mL (≈ 64.1 µM) in series [4]; 48 µg/mL (≈ 85.5 µM) in series [5]; less than 2 µg/mL in series [6]; 42 µg/mL (≈ 74.8 µM) in series [7].
For the compound `C=C(C)[C@@H]1CC[C@]2(COC(=O)COC)CC[C@]3(C)[C@H](CC[C@@H]4[C@@]5(C)CC[C@H](OC(C)=O)C(C)(C)[C@@H]5CC[C@]43C)[C@@H]12` [Compound 19, ((1R,3aS,5aR,5bR,7aR,9S,11aR,11bR,13aR,13b R)-9-acetoxy-5a,5b,8,8,11a-pentamethyl-1-(prop-1-en-2-yl)icosahydro-1H-cyclopenta[a]chrysen-3a-yl)methyl 2-methoxyacetate], the IC50 in series [1] is 7 µg/mL (≈ 12.6 µM); in series [2] it was greater than 75 µg/mL; in series [3], greater than 75 µg/mL; in series [4], greater than 75 µg/mL; in series [5], greater than 75 µg/mL; in series [6], 7 µg/mL (≈ 12.6 µM). For the same compound, the IC50 in series [7] turned out to be 6 µg/mL (≈ 10.8 µM).
Turning to `C=C(C)[C@@H]1CC[C@]2(CO)CC[C@]3(C)[C@H](CC[C@@H]4[C@@]5(C)CC6=C(ON(O)C6)C(C)(C)[C@@H]5CC[C@]43C)[C@@H]12` [Compound 33, (1R,3aS,5aR,5bR,7aR,12aR,12bR,14aR,14bR)-3a-(hydroxymethyl)-1-isopropenyl-5a,5b,8,8,12a-pentamethyl-1,2,3,3a,4,5,5a,5b,6,7,7a,8,11,12,12a,12b,13,14, 14a,14b-icosahydro-10H-cyclopenta[7,8]chryseno[3,2-d]isoxazol-10-ol], the “caspase activation in SK-MEL-2 (in words)” value in series [8] is “induced caspase activation”.
Take `C=C(C)[C@@H]1CC[C@]2(COC(=O)COCC)CC[C@]3(C)[C@H](CC[C@@H]4[C@@]5(C)C=C(C#N)C(=O)C(C)(C)[C@@H]5CC[C@]43C)[C@@H]12` [Compound 40, ((1R,3aS,5aR,5bR,7aR,11aR,11bR,13aR,13bR)-10-cyano-5a,5b,8,8,11a-pentamethyl-9-oxo-1-(prop-1-en-2-yl)-2,3,3a,4,5,5a,5b,6,7,7a,8,9,11a,11b,12,13,13a,13b-octadecahydro-1H-cyclopenta[a]chrysen-3a-yl)methyl 2-ethoxyacetate]: the IC50 stood at 6 µg/mL (≈ 10.9 µM) in series [1]; 28 µg/mL (≈ 50.9 µM) in series [2]; 10 µg/mL (≈ 18.2 µM) in series [3]; 10 µg/mL (≈ 18.2 µM) in series [4]; 30 µg/mL (≈ 54.6 µM) in series [5]; 4 µg/mL (≈ 7.28 µM) in series [6]. The IC50 in series [7] was greater than 10 µg/mL.
For the compound `CC(C)[C@@H]1CC[C@]2(CO)CC[C@]3(C)[C@H](CC[C@@H]4[C@@]5(C)Cc6cnoc6C(C)(C)[C@@H]5CC[C@]43C)[C@@H]12` [Compound 49, [(1S,3aS,5aR,5bR,7aR,12aR,12bR,14aR,14bR)-1-isopropyl-5a,5b,8,8,12a-pentamethyl-1,2,3,4,5,5a,5b,6,7,7a,8,12,12a,12b,13,14,14a, 14b-octadecahydro-3aH-cyclopenta[7,8]chryseno[3,2-d]isoxazol-3a-yl]methanol], the IC50 in series [1] is 10 µg/mL (≈ 21.4 µM); in series [2] it was greater than 75 µg/mL; in series [3] it was 50 to 75 µg/mL (≈ 107 to 160 µM); in series [4] it was 50 to 75 µg/mL (≈ 107 to 160 µM); in series [5], greater than 75 µg/mL; in series [6], 4 µg/mL (≈ 8.55 µM). For the same compound, the concentration for half-maximal inhibition (IC50) in series [7] came to 6 µg/mL (≈ 12.8 µM).
As to `CC(C)[C@@H]1CC[C@]2(COC(=O)CBr)CC[C@]3(C)[C@H](CC[C@@H]4[C@@]5(C)Cc6cnoc6C(C)(C)[C@@H]5CC[C@]43C)[C@@H]12` [Compound 50, [(1S,3aS,5aR,5bR,7aR,12aR,12bR,14aR,14bR)-1-isopropyl-5a,5b,8,8,12a-pentamethyl-1,2,3,4,5,5a,5b,6,7,7a,8,12,12a,12b,13,14,14a, 14b-octadecahydro-3aH-cyclopenta[7,8]chryseno[3,2-d]isoxazol-3a-yl]methyl bromoacetate], the IC50 in series [1] came to 25 µg/mL (≈ 42.5 µM); in series [2], 48 µg/mL (≈ 81.5 µM); in series [3], 42 µg/mL (≈ 71.3 µM); in series [4], 40 µg/mL (≈ 67.9 µM); in series [5], 50 µg/mL (≈ 84.9 µM); in series [6], 4 µg/mL (≈ 6.79 µM). Moreover, the IC50 in series [7] is greater than 75 µg/mL.
For `CC(C)[C@@H]1CC[C@]2(CO)CC[C@]3(C)[C@H](CC[C@@H]4[C@@]5(C)C=C(C#N)C(=O)C(C)(C)[C@@H]5CC[C@]43C)[C@@H]12` [Compound 55, (1S,3aS,5aR,5bR,7aR,11aR,11bR,13aR,13bR)-3a-(hydroxymethyl)-1-isopropyl-5a,5b,8,8,11a-pentamethyl-9-oxo-2,3,3a,4,5,5a,5b,6,7,7a,8,9,11a,11b,12,13,13a,13b-octadecahydro-1H-cyclopenta[a]chrysene-10-carbonitrile], the IC50 in series [1] is 4 µg/mL (≈ 8.59 µM); in series [3], 8 µg/mL (≈ 17.2 µM); in series [4], 7 µg/mL (≈ 15 µM); in series [5], greater than 75 µg/mL.
For `C=C(C)[C@@H]1CC[C@]2(C=O)CC[C@]3(C)[C@H](CC[C@@H]4[C@@]5(C)CCC(=O)C(C)(C)[C@@H]5CC[C@]43C)[C@@H]12` [Compound 66, (1R,3aS,5aR,5bR,7aR,11aR,11bR,13aR,13bR)-5a,5b,8,8,11a-pentamethyl-9-oxo-1-(prop-1-en-2-yl)icosahydro-1H-cyclopenta[a]chrysene-3a-carbaldehyde], the IC50 in series [1] amounted to 15 µg/mL (≈ 34.2 µM); in series [2], 35 µg/mL (≈ 79.8 µM); in series [3], 20 µg/mL (≈ 45.6 µM); in series [4] it was 21 µg/mL (≈ 47.9 µM); in series [5], 38 µg/mL (≈ 86.6 µM); in series [6], 6 µg/mL (≈ 13.7 µM). Also, in series [7], the IC50 amounted to 28 µg/mL (≈ 63.8 µM). Further, the “selectivity of cytotoxicity for Daoy (in words)” value in series [6] (MTS assay, Daoy versus other cell lines) is recorded as “selective toxicity towards Daoy”.
Consider `C=C(C)[C@@H]1CC[C@]2(CNCCCl)CC[C@]3(C)[C@H](CC[C@@H]4[C@@]5(C)CC[C@H](O)C(C)(C)[C@@H]5CC[C@]43C)[C@@H]12` [Compound 70, (1R,3aS,5aR,5bR,7aR,9S,11aR,11bR,13aR,13bR)-3a-((2-chloroethylamino)methyl)-5a,5b,8,8,11a-pentamethyl-1-(prop-1-en-2-yl)icosahydro-1H-cyclopenta[a]chrysen-9-ol], for which the IC50 in series [1] is 20 µg/mL (≈ 39.7 µM); in series [3] it was 10 µg/mL (≈ 19.8 µM); in series [4] it was 19 µg/mL (≈ 37.7 µM); in series [5] it was 54 µg/mL (≈ 107 µM); in series [6], less than 2 µg/mL; in series [7] it was 35 µg/mL (≈ 69.4 µM).
In the case of `C=C(C)[C@@H]1CC[C@]2(C(=O)O)CC[C@]3(C)[C@H](CC[C@@H]4[C@@]5(C)CCC(NCCO)C(C)(C)[C@@H]5CC[C@]43C)[C@@H]12` (stereo partly drawn) [Compound 77, (1R,3aS,5aR,5bR,7aR,11aR,11bR,13aR,13bR)-9-(2-hydroxyethylamino)-5a,5b,8,8,11a-pentamethyl-1-(prop-1-en-2-yl)icosahydro-1H-cyclopenta[a]chrysene-3a-carboxylic acid], the IC50 in series [1] was 14 µg/mL (≈ 28 µM); in series [3], 28 µg/mL (≈ 56 µM); in series [4] it was 16 µg/mL (≈ 32 µM); in series [5], 35 µg/mL (≈ 70 µM); in series [6], less than 2 µg/mL; in series [7] it was 36 µg/mL (≈ 72 µM).
For the compound `CC(C)[C@@H]1CC[C@]2(C(=O)O)CC[C@]3(C)[C@H](CC[C@@H]4[C@@]5(C)CCC(=O)C(C)(C)[C@@H]5CC[C@]43C)[C@@H]12` [Compound 87, (1S,3aS,5aR,5bR,7aR,11aR,11bR,13aR,13bR)-1-isopropyl-5a,5b,8,8,11a-pentamethyl-9-oxoicosahydro-1H-cyclopenta[a]chrysene-3a-carboxylic acid], the IC50 in series [1] amounted to 22 µg/mL (≈ 48.2 µM); in series [2], 28 µg/mL (≈ 61.3 µM); in series [3] it was 22 µg/mL (≈ 48.2 µM); in series [4], 35 µg/mL (≈ 76.6 µM); in series [5], 38 µg/mL (≈ 83.2 µM); in series [6], 5 µg/mL (≈ 10.9 µM). In addition, the IC50 in series [7] is 16 µg/mL (≈ 35 µM).
